Earlier results, collected in US20170101350A1, “SYNTHETIC ACID COMPOSITIONS AND USES THEREOF” (priority 2014, published 2017).

Conditions: death in 2-3 minutes

Cl [hydrogen chloride gas, hydrogen chloride]
levels at which death can occur: 1300-2000 ppm
